Earlier results on two compounds are cited in patent EP3697221B1, “AQUEOUS SUSPENSION CONCENTRATES BASED ON 2-[(2,4-DICHLOROPHENYL)-METHYL]-4,4'-DIMETHYL-3-ISOXAZOLIDINONE” (Bayer Aktiengesellschaft, priority 2017, dated 2019).

The conditions of this data set: water.

Regarding `CC1(C)CON(Cc2ccccc2Cl)C1=O` [Clomazone, 2-(2-chlorobenzyl)-4,4-dimethyl-1,2-oxazolidin-3-one], the Wasserlöslichkeit is listed as 1000 ppm.

Consider `CC1(C)CON(Cc2ccc(Cl)cc2Cl)C1=O` [DCPMI, 2-[(2,4-Dichlorphenyl)-methyl]-4,4'-dimethyl-3-isoxazolidinone], for which the Wasserlöslichkeit is on record as 39,5 ppm.
